These results are taken from patent US20250360132A1, “METHODS OF ADMINISTERING MYOSIN INHIBITORS” (MYOKARDIA, INC., priority 2022, published 2025).

The test system of one data set is virtual oHCM patients. Kind of data set: Exposure-response simulation of titration Regimen #2. Also noted: species or system human. The settings on record: CYP2C19 phenotype distribution in the EU population. From the text:
Mavacamten has substantial pharmacokinetic (PK) variability, the largest contributor being CYP2C19 phenotype. Beyond phenotype, and after incorporation of all PK covariates, a moderate inter-individual variability remains. As a result of the PK variability, there is a need to achieve an ideal balance of reducing the Valsalva left ventricular outflow tract gradient (VLVOT) while maintaining the patient's left ventricular ejection fraction (LVEF), and an echocardiogram (ECHO) based titration regimen was developed. Modeling and simulation analyses have been undertaken to further evaluate dose titration by CYP2C19 phenotype.
In addition, an exposure-response simulation-based approach was utilized to investigate multiple titration regimens using an equal distribution of CYP2C19 phenotype to allow for additional sensitivity in assessing the performance of the titration regimen for each phenotype. The evaluations included genotype specific dosing and titration, adjusted starting dose of 2.5 mg and additional monitoring intervals. For each posology investigated, the key objectives remained consistent: to limit the percent (%) of simulated patients experiencing LVEF <50%, while gradually up-titrating them to achieve VLVOT <30 mmHg. This Example outlines the evaluation of 3 titration regimens, described below.
The methods used to conduct the simulations are described as follows. […]

Another data set deals with BSEP (Homo sapiens, UniProt O95342). As to the kind of experiment: In vitro transporter inhibition. It counts as in vitro ADME.
In another data set the test system is male or female rats. As to the kind of experiment: Reproductive toxicity studies (mating and fertility). It is filed as in vivo, rat.
In data set [1] the test system is patients with HCM and healthy subjects. As to the kind of experiment: Human experience of overdose / high doses. It is filed as in vivo.
Data set [2] is described as follows: Pre/postnatal development study. It is filed as in vivo, rat. The conditions noted are these: female, rat, in vivo; oral, gestation Day 6 to lactation/post-partum Day 20; highest dosage level tested; read-out: no-observed-adverse-effect level (NOAEL). The procedure: (§1) In a pre/postnatal development study, mavacamten was administered orally to pregnant rats (0.3, to 1.5 mg/kg/day) from gestation Day 6 to lactation/post-partum Day 20.

A further data set has as its system pregnant rats. Kind of data set: Pre/postnatal development study. The conditions noted are these: 0.3 to 1.5 mg/kg/day. It counts as in vivo, rat. The procedure:
as §1

The target of data set [3] is T1, CYP2C19 (Homo sapiens, UniProt P33261). As to the kind of experiment: Clinical DDI with weak CYP2C19 inhibitor omeprazole. It is filed as in vivo. Set-up: host or cells: in silico (Simcyp v19). The conditions noted are these: mavacamten 15 mg with omeprazole 20 mg once daily; healthy CYP2C19 NMs and RMs.
A further data set has as its target CYP2C9 (Homo sapiens, UniProt P11712). Kind of data set: In vitro CYP inhibition. The conditions noted are these: at clinically relevant concentrations. It counts as in vitro ADME. From the text:
(§2) Mavacamten is a CYP2B6 inducer.

The next data set deals with CYP2C8 (Homo sapiens, UniProt P10632). As to the kind of experiment: In vitro CYP inhibition. It is filed as in vitro ADME.
Description: as §2

The target of a further data set is CYP2D6 (Homo sapiens, UniProt P10635). Kind of data set: In vitro CYP inhibition. It is filed as in vitro ADME. The settings on record: at clinically relevant concentrations.
Description: as §2

In a further data set the target is CYP2B6 (Homo sapiens, UniProt P20813). Kind of data set: In vitro CYP inhibition. It counts as in vitro ADME.
Description: as §2

Data set [4] deals with T1, CYP2C19. Kind of data set: In vitro CYP inhibition. It is filed as in vitro ADME. The conditions noted are these: at clinically relevant concentrations.
Description: as §2

In the next data set the target is CYP1A2 (Homo sapiens, UniProt P05177). As to the kind of experiment: In vitro CYP inhibition. It counts as in vitro ADME.
Description: as §2

A further data set can be described thus: Solubility. It counts as physicochemical.
A further data set addresses CYP3A4 (Homo sapiens, UniProt P08684). As to the kind of experiment: Clinical DDI with moderate CYP3A4 inhibitor verapamil. It is filed as in vivo. Set-up: host or cells: in silico (Simcyp v19 where stated). The settings on record: mavacamten 25 mg with verapamil sustained release 240 mg; CYP2C19 IMs and NMs.
The test system of the next data set is human lymphocyte. Kind of data set: Human in vitro lymphocyte electrogenicity assay. It is filed as cell-based. From the text:
Mavacamten was not genotoxic in a bacterial reverse mutation test (Ames test), a human in vitro lymphocyte […] assay, or a rat in vivo micronucleus assay.

Structures are written as SMILES.

Chain of CYP3A4 (P08684 whole entry): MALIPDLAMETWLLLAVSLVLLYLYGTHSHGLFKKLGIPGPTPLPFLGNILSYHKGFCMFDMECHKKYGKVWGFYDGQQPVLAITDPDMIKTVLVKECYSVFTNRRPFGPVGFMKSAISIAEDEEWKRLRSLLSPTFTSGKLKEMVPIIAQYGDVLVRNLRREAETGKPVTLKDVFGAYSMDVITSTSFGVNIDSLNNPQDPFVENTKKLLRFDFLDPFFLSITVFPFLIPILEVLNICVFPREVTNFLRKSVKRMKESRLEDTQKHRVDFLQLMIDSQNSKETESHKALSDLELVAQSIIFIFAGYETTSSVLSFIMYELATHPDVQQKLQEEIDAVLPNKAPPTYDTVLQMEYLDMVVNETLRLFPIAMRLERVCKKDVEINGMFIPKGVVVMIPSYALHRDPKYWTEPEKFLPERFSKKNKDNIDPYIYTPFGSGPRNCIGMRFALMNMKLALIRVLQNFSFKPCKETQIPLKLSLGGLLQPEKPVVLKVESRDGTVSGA
T1 sequence (P33261 whole entry): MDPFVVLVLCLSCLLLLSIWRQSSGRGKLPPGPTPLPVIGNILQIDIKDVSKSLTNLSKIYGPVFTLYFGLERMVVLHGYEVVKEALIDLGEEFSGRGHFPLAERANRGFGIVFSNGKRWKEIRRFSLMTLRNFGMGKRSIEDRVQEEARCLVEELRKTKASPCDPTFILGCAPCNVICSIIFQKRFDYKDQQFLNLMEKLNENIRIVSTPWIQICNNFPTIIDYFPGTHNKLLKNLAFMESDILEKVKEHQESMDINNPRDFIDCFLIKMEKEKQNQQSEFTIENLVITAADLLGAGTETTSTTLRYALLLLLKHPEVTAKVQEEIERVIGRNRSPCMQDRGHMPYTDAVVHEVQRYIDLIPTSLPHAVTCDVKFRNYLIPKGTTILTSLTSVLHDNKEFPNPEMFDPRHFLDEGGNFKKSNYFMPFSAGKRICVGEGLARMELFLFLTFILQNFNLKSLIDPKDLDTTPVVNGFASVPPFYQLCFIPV
Chain of CYP2C8 (P10632 whole entry): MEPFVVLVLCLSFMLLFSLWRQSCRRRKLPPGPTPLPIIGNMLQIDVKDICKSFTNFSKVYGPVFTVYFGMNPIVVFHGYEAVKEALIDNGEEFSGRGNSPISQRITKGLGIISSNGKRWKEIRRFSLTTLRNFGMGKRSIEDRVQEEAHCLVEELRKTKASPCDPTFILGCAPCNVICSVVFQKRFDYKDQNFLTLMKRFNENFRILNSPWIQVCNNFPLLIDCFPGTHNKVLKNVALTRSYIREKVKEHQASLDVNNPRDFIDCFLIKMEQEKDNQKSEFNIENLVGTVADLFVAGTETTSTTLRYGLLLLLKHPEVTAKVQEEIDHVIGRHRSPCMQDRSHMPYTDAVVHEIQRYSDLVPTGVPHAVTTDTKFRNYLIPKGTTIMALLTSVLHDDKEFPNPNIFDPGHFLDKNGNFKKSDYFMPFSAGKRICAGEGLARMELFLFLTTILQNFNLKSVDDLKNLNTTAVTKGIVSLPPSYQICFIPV
Chain of CYP1A2 (P05177 whole entry): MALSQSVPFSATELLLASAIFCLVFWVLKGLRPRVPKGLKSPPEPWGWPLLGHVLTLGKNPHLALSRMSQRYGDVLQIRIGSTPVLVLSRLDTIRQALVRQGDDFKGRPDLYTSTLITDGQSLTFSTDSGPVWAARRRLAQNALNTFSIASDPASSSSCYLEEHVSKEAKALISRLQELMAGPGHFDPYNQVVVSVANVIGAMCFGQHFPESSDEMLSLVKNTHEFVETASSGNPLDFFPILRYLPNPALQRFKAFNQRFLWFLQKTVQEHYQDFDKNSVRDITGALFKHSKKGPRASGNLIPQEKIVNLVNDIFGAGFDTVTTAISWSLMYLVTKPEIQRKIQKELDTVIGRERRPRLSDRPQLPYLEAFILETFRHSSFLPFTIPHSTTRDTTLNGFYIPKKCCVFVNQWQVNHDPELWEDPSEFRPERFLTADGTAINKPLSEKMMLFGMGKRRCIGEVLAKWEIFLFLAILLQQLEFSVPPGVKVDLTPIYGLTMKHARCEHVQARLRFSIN
Chain of CYP2D6 (P10635 whole entry): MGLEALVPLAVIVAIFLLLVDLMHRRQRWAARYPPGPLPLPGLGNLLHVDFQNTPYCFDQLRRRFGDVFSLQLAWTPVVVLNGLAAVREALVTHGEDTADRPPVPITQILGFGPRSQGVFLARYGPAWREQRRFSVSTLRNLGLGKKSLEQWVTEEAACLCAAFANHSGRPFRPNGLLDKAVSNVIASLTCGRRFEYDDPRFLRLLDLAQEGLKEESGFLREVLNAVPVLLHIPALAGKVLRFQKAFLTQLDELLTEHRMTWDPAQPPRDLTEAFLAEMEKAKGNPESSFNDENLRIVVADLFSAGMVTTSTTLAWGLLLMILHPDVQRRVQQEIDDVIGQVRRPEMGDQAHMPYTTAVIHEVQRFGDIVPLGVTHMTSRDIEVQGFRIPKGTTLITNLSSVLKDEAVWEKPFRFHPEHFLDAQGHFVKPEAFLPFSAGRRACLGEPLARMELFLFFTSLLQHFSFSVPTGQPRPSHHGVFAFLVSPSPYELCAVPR
Chain of CYP2B6 (P20813 whole entry): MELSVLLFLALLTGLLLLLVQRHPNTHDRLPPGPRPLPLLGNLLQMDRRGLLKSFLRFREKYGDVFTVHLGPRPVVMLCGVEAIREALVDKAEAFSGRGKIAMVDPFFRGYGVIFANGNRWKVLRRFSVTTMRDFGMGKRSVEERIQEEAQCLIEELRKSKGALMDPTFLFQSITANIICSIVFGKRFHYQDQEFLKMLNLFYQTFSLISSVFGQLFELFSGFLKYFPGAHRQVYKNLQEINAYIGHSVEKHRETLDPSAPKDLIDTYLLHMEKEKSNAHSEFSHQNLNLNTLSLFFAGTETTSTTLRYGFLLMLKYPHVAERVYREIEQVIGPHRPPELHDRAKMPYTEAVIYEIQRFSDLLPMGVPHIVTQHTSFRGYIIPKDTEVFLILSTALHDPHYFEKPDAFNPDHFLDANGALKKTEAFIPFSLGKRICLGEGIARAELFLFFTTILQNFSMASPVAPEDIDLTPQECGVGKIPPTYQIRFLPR
Chain of BSEP (O95342 whole entry): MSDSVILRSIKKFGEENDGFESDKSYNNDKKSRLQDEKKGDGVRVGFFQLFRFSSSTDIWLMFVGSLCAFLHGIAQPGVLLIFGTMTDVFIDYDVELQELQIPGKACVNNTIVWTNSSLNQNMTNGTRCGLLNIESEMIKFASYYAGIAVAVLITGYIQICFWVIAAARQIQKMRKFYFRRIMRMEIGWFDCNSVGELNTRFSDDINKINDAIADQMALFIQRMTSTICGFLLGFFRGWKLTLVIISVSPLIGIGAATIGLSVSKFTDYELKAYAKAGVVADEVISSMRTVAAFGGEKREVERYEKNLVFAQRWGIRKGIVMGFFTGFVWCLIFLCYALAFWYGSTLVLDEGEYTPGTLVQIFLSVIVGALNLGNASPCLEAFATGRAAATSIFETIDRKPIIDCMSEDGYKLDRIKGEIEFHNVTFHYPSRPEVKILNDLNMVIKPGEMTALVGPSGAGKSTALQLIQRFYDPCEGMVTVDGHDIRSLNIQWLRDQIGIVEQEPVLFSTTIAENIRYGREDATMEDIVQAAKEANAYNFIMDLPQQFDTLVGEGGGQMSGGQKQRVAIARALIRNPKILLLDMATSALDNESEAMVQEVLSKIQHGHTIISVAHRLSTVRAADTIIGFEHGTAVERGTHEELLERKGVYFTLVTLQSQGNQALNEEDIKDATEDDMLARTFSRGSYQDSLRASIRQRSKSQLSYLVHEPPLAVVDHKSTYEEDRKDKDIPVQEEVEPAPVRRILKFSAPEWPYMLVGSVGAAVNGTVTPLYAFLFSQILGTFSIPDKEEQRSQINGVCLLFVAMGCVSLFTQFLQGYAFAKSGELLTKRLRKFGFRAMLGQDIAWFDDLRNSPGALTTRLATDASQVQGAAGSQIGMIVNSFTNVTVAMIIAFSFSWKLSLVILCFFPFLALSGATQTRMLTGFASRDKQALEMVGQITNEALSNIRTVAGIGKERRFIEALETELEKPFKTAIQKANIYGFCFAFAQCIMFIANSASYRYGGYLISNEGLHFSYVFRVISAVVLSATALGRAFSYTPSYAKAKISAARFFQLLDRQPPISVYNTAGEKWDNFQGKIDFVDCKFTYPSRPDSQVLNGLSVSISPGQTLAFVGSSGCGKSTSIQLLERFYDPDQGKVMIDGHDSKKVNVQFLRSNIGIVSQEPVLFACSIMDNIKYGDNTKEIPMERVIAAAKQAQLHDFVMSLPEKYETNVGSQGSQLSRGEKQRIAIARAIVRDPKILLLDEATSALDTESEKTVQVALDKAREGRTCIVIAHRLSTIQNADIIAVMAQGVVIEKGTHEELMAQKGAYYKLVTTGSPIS
Chain of CYP2C9 (P11712 whole entry): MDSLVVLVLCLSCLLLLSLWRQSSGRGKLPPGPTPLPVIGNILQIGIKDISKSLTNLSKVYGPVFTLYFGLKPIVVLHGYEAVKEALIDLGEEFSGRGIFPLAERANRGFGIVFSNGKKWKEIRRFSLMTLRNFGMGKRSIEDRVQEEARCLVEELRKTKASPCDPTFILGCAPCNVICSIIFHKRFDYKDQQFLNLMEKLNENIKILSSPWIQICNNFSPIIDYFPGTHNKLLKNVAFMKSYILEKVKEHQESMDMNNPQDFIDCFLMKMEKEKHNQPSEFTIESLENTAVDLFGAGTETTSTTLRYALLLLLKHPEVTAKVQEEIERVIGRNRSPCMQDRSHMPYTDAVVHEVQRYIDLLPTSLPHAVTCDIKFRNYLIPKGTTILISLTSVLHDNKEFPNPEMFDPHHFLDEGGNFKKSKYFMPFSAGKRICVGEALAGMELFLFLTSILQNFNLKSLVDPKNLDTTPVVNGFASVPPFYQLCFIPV

Turning to `CC(C)n1c(=O)cc(N[C@@H](C)c2ccccc2)[nH]c1=O` [mavacamten, (S)-3-Isopropyl-6-((1-phenylethyl)amino)pyrimidine-2,4(1H,3H)-dione], in the data set with virtual oHCM patients, the “patients excluded/permanently discontinued overall” value is under 0.5%. For the same compound, the “Inhibition of BSEP” value at BSEP is recorded as “does not inhibit”. Besides, the “Effects on viability and fertility of offspring” value in the data set on male or female rats (dams dosed up to 1.5 mg/kg/day) is reported as “no evidence of effects”. The “Plasma exposure (AUC) at the highest dose tested” value in the data set with male or female rats (vs humans at the MRHD) was “the same as in humans at the MRHD”. In data set [1] (healthy subjects, 25 mg dose level, up to 25 days), the “participants experiencing 20% or greater reductions in LVEF” value was 3 of 8. The “Outcome of accidental ingestion” value in [1] (infant, three 15 mg capsules) is given as “infant death”. Further, the “Events after single dose of 144 mg” value in data set [1] (one subject with HCM, subject recovered) was “serious adverse events including vasovagal reaction, hypotension, and asystole”. In data set [2], the NOAEL was 1.5 mg/kg/day. The “Effects in dams or offspring” value in the data set with pregnant rats is on record as “No adverse effects were observed in the dams or offspring”. For the same compound, the “Increase in mavacamten AUCinf” value on CYP2C19 [3] is reported as 48%. Moreover, the “Inhibition of CYP2C9” value at CYP2C9 was “not an inhibitor”. Further, the “Inhibition of CYP2C8” value at CYP2C8 was “does not inhibit”. The “Inhibition of CYP2D6” value on CYP2D6 is reported as “not an inhibitor”. At CYP2B6, the “Inhibition of CYP2B6” value is reported as “does not inhibit”. Besides, the “Inhibition of CYP2C19” value on CYP2C19 [4] is listed as “not an inhibitor”. Moreover, the “Inhibition of CYP1A2” value at CYP1A2 was “does not inhibit”. Also, in the data set “Solubility”, the “Solubility in DMSO and NMP” value is “freely soluble”; the “Solubility in methanol and ethanol” value is “sparingly soluble”. In addition, in “Solubility” (pH 2-10), the “Solubility in water and aqueous buffers” value is “practically insoluble”. For the same compound, on CYP3A4, the “Increase in mavacamten AUCinf” value is listed as 15% and the “Increase in mavacamten Cmax” value is listed as 52%. Also, in the data set with human lymphocyte, the “Genotoxicity, human in vitro lymphocyte electrogenicity assay” value is recorded as “not genotoxic”.
